Measured values: ChEMBL document CHEMBL1201862, “PubChem BioAssay data set” (2004)
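48-hour exposure; five concentrations; linearly interpolated endpoints. GI50: concentration for 50% inhibition of growth.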 Calls of active or inactive are those of the source. No stated cut-off is given here; in the data, active = GI50 up to about 1.1 µM and inactive = higher.

How the values were obtained:
Test in all cases: growth of human tumour cells (NCI), 48 h
[1] = tested on: M14
[2] = tested on: NCI-H23
[3] = tested on: SF-539
[4] = tested on: HOP-92
[5] = tested on: HT-29
[6] = tested on: EKVX
[7] = tested on: NCI-H460
[8] = tested on: 786-0
[9] = tested on: UACC-257
[10] = tested on: HOP-62
[11] = tested on: NCI-H522
[12] = tested on: SK-MEL-28
[13] = tested on: A549
[14] = tested on: DLD-1
[15] = tested on: OVCAR-4
[16] = tested on: HCC 2998
[17] = tested on: SNB-19
[18] = tested on: ACHN
[19] = tested on: SF-295
[20] = tested on: UACC-62
[21] = tested on: HCT-15
[22] = tested on: KM-20L2
[23] = tested on: SN12C
[24] = tested on: IGROV-1
[25] = tested on: DMS-273
[26] = tested on: OVCAR-3
[27] = tested on: KM12
[28] = tested on: UO-31
[29] = tested on: SK-MEL-5
[30] = tested on: OVCAR-8
[31] = tested on: HCT-116
[32] = tested on: TK-10
[33] = tested on: CAKI-1
[34] = tested on: SNB-78
[35] = tested on: M19-MEL
[36] = tested on: SF-268
[37] = tested on: U-251
[38] = tested on: LXFL 529
[39] = tested on: SK-MEL-2
[40] = tested on: SW-620
[41] = tested on: LOX IMVI
[42] = tested on: RPMI-8226
[43] = tested on: RXF 393
[44] = tested on: SR
[45] = tested on: SK-OV-3
[46] = tested on: CCRF-CEM
[47] = tested on: A498
[48] = tested on: OVCAR-5
[49] = tested on: K562
[50] = tested on: MOLT-4
[51] = tested on: COLO 205
[52] = tested on: Malme-3M
[53] = tested on: HL-60
[54] = tested on: DMS-114
[55] = tested on: SNB-75
[56] = tested on: NCI-H226

Cc1ccc(C(=O)NC2CCCCC2)cc1/N=N/N(C)C
GI50 [1]: > 100 µM (inactive)
GI50 [2]: > 100 µM (inactive)
GI50 [3]: > 100 µM (inactive)
GI50 [4]: > 100 µM (inactive)
GI50 [5]: > 100 µM (inactive)
GI50 [6]: > 100 µM (inactive)
GI50 [7]: > 100 µM (inactive)
GI50 [8]: > 100 µM (inactive)
GI50 [9]: > 100 µM (inactive)
GI50 [10]: > 100 µM (inactive)
GI50 [11]: 74 µM (inactive)
GI50 [12]: > 100 µM (inactive)
GI50 [13]: > 100 µM (inactive)
GI50 [14]: > 100 µM (inactive)
GI50 [15]: > 100 µM (inactive)
GI50 [16]: > 100 µM (inactive)
GI50 [17]: > 100 µM (inactive)
GI50 [18]: > 100 µM (inactive)
GI50 [19]: > 100 µM (inactive)
GI50 [20]: > 100 µM (inactive)
GI50 [21]: > 100 µM
GI50 [22]: > 100 µM (inactive)
GI50 [23]: > 100 µM (inactive)
GI50 [24]: > 100 µM (inactive)
GI50 [25]: > 100 µM (inactive)
GI50 [26]: > 100 µM (inactive)
GI50 [27]: > 100 µM (inactive)
GI50 [28]: > 100 µM (inactive)
GI50 [29]: > 100 µM (inactive)
GI50 [30]: > 100 µM (inactive)
GI50 [31]: > 100 µM (inactive)
GI50 [32]: > 100 µM (inactive)
GI50 [33]: > 100 µM (inactive)
GI50 [34]: > 100 µM (inactive)
GI50 [35]: > 100 µM (inactive)
GI50 [36]: 44.9 µM (inactive)
GI50 [37]: > 100 µM (inactive)
GI50 [38]: > 100 µM (inactive)
GI50 [39]: > 100 µM (inactive)
GI50 [40]: > 100 µM (inactive)
GI50 [41]: > 100 µM (inactive)

CCC1OCCN1C(C)C (configuration not stated)
GI50 [2]: 32.9 µM (inactive)
GI50 [3]: > 100 µM (inactive)
GI50 [42]: 60 µM (inactive)
GI50 [6]: 26.2 µM (inactive)
GI50 [7]: 63.1 µM (inactive)
GI50 [8]: > 100 µM (inactive)
GI50 [9]: 97.5 µM (inactive)
GI50 [43]: > 100 µM (inactive)
GI50 [44]: > 100 µM (inactive)
GI50 [45]: > 100 µM (inactive)
GI50 [11]: 85.5 µM (inactive)
GI50 [12]: 32.8 µM (inactive)
GI50 [13]: > 100 µM (inactive)
GI50 [14]: 92 µM (inactive)
GI50 [16]: > 100 µM (inactive)
GI50 [17]: > 100 µM (inactive)
GI50 [18]: > 100 µM (inactive)
GI50 [19]: > 100 µM (inactive)
GI50 [46]: > 100 µM (inactive)
GI50 [20]: 59 µM (inactive)
GI50 [21]: 81.1 µM
GI50 [47]: > 100 µM (inactive)
GI50 [22]: > 100 µM (inactive)
GI50 [48]: > 100 µM (inactive)
GI50 [23]: > 100 µM (inactive)
GI50 [24]: > 100 µM (inactive)
GI50 [25]: 69.2 µM (inactive)
GI50 [27]: > 100 µM (inactive)
GI50 [49]: > 100 µM (inactive)
GI50 [50]: > 100 µM (inactive)
GI50 [28]: 96.6 µM (inactive)
GI50 [29]: 70.8 µM (inactive)
GI50 [51]: > 100 µM (inactive)
GI50 [52]: 65.2 µM (inactive)
GI50 [30]: > 100 µM (inactive)
GI50 [53]: > 100 µM (inactive)
GI50 [31]: 89.9 µM (inactive)
GI50 [32]: 42 µM (inactive)
GI50 [34]: > 100 µM (inactive)
GI50 [35]: 71.4 µM (inactive)
GI50 [36]: > 100 µM (inactive)
GI50 [37]: > 100 µM (inactive)
GI50 [38]: > 100 µM (inactive)
GI50 [39]: > 100 µM (inactive)
GI50 [54]: 85.9 µM (inactive)
GI50 [40]: > 100 µM (inactive)
GI50 [41]: > 100 µM (inactive)

O=C1c2ccccc2N(O)C1(c1ccccc1)C1CCCC=C1N1CCOCC1 (configuration not stated)
GI50 [1]: > 100 µM (inactive)
GI50 [2]: > 100 µM (inactive)
GI50 [3]: 80.9 µM (inactive)
GI50 [42]: 17.1 µM (inactive)
GI50 [5]: > 100 µM (inactive)
GI50 [6]: 34.7 µM (inactive)
GI50 [7]: > 100 µM (inactive)
GI50 [9]: 70.6 µM (inactive)
GI50 [43]: 22.4 µM (inactive)
GI50 [10]: > 100 µM (inactive)
GI50 [44]: 28.4 µM (inactive)
GI50 [45]: > 100 µM (inactive)
GI50 [11]: 22.5 µM (inactive)
GI50 [12]: 83.8 µM (inactive)
GI50 [13]: 50.4 µM (inactive)
GI50 [55]: 18.4 µM (inactive)
GI50 [14]: > 100 µM (inactive)
GI50 [16]: > 100 µM (inactive)
GI50 [17]: 57.9 µM (inactive)
GI50 [18]: > 100 µM (inactive)
GI50 [19]: > 100 µM (inactive)
GI50 [46]: 40.7 µM (inactive)
GI50 [20]: 35.8 µM (inactive)
GI50 [21]: 91.2 µM
GI50 [22]: > 100 µM (inactive)
GI50 [48]: > 100 µM (inactive)
GI50 [23]: > 100 µM (inactive)
GI50 [24]: > 100 µM (inactive)
GI50 [25]: > 100 µM (inactive)
GI50 [26]: > 100 µM (inactive)
GI50 [49]: 39.8 µM (inactive)
GI50 [50]: 20.8 µM (inactive)
GI50 [56]: 69.5 µM (inactive)
GI50 [28]: 22.5 µM (inactive)
GI50 [29]: > 69.5 µM (inactive)
GI50 [51]: > 100 µM (inactive)
GI50 [30]: > 100 µM (inactive)
GI50 [53]: 50.4 µM (inactive)
GI50 [31]: 28.5 µM (inactive)
GI50 [32]: > 100 µM (inactive)
GI50 [33]: > 100 µM (inactive)
GI50 [34]: > 100 µM (inactive)
GI50 [35]: > 100 µM (inactive)
GI50 [36]: 40.8 µM (inactive)
GI50 [37]: 87.5 µM (inactive)
GI50 [38]: 68.5 µM (inactive)
GI50 [54]: 50.1 µM (inactive)
GI50 [40]: > 100 µM (inactive)
GI50 [41]: 71.1 µM (inactive)
